Experimental data: publication PMC8528301 (PLoS ONE, 2021)
Values joined by “and” are separate entries in the source; they are usually repeats but may differ in a detail not shown here. Identical values can stand only once.

Key:
[1] = Plasma DEX concentrations on discontinuous oral DEX regimen in drinking water (Fig 3); format: in vivo, mouse; settings: for concentration at 3.5 day / concentration at 10.5 day / concentration at 17.5 day: C57BL/6, mouse, oral, 8 mg/L, Dexamethasone conc; for observed systemic (plasma) concentrations of DEX, range: mice on the discontinuous DEX regimen
Procedure: 1 g/L of tetracycline (Sigma-Aldrich Inc, St. Louis, MO, USA) was added during both phases. Assuming that mice drink 5 mL of water per day, the dose they receive would be 1.6–2 mg/kg/day. […] At the end of in vivo procedures, all plasma samples were transferred from dry ice and stored at –80°C until analysis.
Sidak’s multiple comparison test (**p<0.01, ****p<0.0001) was used to further analyze the effect of vitamin D status at each time point.

[2] = DEX single oral gavage plasma pharmacokinetics (NLME modeling); settings: for DV (Dex oral gavage PK raw data): individual mice;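 for all read-outs here: plasma concentration-time data analysed by nonlinear mixed-effects modeling in Monolix with SAEM estimation, models built on apparent clearance, distribution volume and absorption rate constant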
Procedure: Blood was collected via saphenous/retro-orbital vein at time points: 0.25, 0.75, 0.5, 1, 1.5, 2, 4, 8, 16 hours after treatment. Three sets of mice were used for this experiment, where set 1 was sampled at 2,4,8 hr; set 2 at 0.25, 0.75, 1.5 hr; set 3 at 0.5, 1 and 16 hr. Samples were centrifuged at 10,000 rpm for 2 minutes, plasma was removed and stored at -80°C until further analysis.
Briefly, parameters and the Fisher Information Matrix (FIM) were estimated using the stochastic approximation expectation maximization (SAEM) algorithm, and the final log-likelihood estimated with importance sampling, all using the default Monolix initial settings, except that 1000 iterations were permitted for estimation of FIM using stochastic approximation. A variety of models were fit to the respective compound’s Ct data, parameterized using apparent clearances, volumes of distribution, and absorption rate constant as needed. […] A log-normal inter-individual and inter-occasion parameter distribution was assumed on selected supported parameters, with both on- and off-diagonal elements of parameter covariance matrices tested. Additive and/or proportional error models were tested and implemented as supported. Beal’s M3 method was used to fit any data that were below the LLOQ or above the upper limit of the assay range [20]. […] Additionally, Wald test P values were outputted for each covariate effect by the Monolix software.
Additionally, Wald test P values were outputted for each covariate effect by the Monolix software.

PXR = settings: cited from earlier work
CYP3A4 = test system: CYP3A4; set-up: method as in PMID 19282395; settings: cited from earlier work
[3] = oral dosing; monkeys; cited from earlier work

C[C@@H]1C[C@H]2[C@@H]3CCC4=CC(=O)C=C[C@]4(C)[C@@]3(F)[C@@H](O)C[C@]2(C)[C@@]1(O)C(=O)CO [DEX, dexamethasone]
estimated Cgut (gut concentration) ([1]; discontinuous DEX in drinking water, assuming mice drink 200–400 μl/hr): 7 to 10 µM and 7.6 to 10.1 µM | concentration at 3.5 day ([1]; female, plasma, avg, VD3 deficient, D3.5, n=5): 78 nM | concentration at 10.5 day ([1]; female, plasma, avg, VD3 deficient, D10.5, n=4): 63 nM | concentration at 17.5 day ([1]; female, plasma, avg, VD3 deficient, D17.5, n=4): 58.5 nM | concentration at 3.5 day ([1]; female, plasma, avg, VD3 sufficient, D3.5, n=5): 99.3 nM | concentration at 10.5 day ([1]; female, plasma, avg, VD3 sufficient, D10.5, n=4): 52.7 nM | concentration at 17.5 day ([1]; female, plasma, avg, VD3 sufficient, D17.5, n=5): 38.7 nM | concentration at 10.5 day ([1]; female, plasma, individual mouse, VD3 deficient (GCD), D10.5): 58.6 nM | concentration at 3.5 day ([1]; female, plasma, individual mouse, VD3 sufficient (MRE), D3.5): 95.6 nM | concentration at 10.5 day ([1]; female, plasma, individual mouse, VD3 sufficient (MRE), D10.5): 49.9 nM | concentration at 3.5 day ([1]; male, plasma, avg, plasma, male, VD3 deficient, day 3.5, n=8): 31.7 nM | concentration at 10.5 day ([1]; male, plasma, avg, plasma, male, VD3 deficient, day 10.5, n=13): 25.3 nM | concentration at 17.5 day ([1]; male, plasma, avg, plasma, male, VD3 deficient, day 17.5, n=13): 13.1 nM | concentration at 3.5 day ([1]; male, plasma, avg, plasma, male, VD3 sufficient, day 3.5, n=11): 12.4 nM | concentration at 10.5 day ([1]; male, plasma, avg, plasma, male, VD3 sufficient, day 10.5, n=11): 18 nM | concentration at 17.5 day ([1]; male, plasma, avg, plasma, male, VD3 sufficient, day 17.5, n=11): 13.3 nM | observed systemic (plasma) concentrations of DEX, range [1]: 2.6 to 201.5 nM | observed systemic (plasma) concentrations of DEX, range ([1]; listed as Dexamethasone): 2 to 200 nM | Dexamethasone conc, individual mouse ([1]; plasma, female, VD3 deficient (GCD), D3.5): 88.42 nM and 34.10 nM and 126.21 nM and 104.66 nM and 36.85 nM | Dexamethasone conc, individual mouse ([1]; plasma, female, VD3 deficient (GCD), D10.5): 55.47 nM and 71.15 nM and 66.95 nM | Dexamethasone conc, individual mouse ([1]; plasma, female, VD3 deficient (GCD), D17.5): 84.72 nM and 78.40 nM and 26.56 nM and 44.39 nM | Dexamethasone conc, individual mouse ([1]; plasma, female, VD3 sufficient (MRE), D3.5): 94.88 nM and 116.14 nM and 126.22 nM and 63.45 nM | Dexamethasone conc, individual mouse ([1]; plasma, female, VD3 sufficient (MRE), D10.5): 50.92 nM and 57.26 nM | Dexamethasone conc, individual mouse ([1]; plasma, female, VD3 sufficient (MRE), D17.5): 24.99 nM and 23.28 nM and 21.33 nM and 61.18 nM and 62.62 nM | Dexamethasone conc, individual mouse ([1]; plasma, male, VD3 deficient (GCD), 3.5 Days, discontinuous DEX in drinking water): 28.49 nM and 21.78 nM and 23.16 nM and 14.22 nM and 52.94 nM and 69.07 nM and 12.19 nM | Dexamethasone conc, individual mouse ([1]; plasma, male, VD3 deficient (GCD), 10.5 Days): 24.64 nM and 18.60 nM and 35.12 nM and 50.14 nM and 22.77 nM and 19.09 nM and 13.20 nM and 32.61 nM and 4.50 nM and 20.98 nM and 51.76 nM and 9.92 nM | Dexamethasone conc, individual mouse ([1]; plasma, male, VD3 deficient (GCD), 17.5 Days): 7.03 nM and 9.03 nM and 37.95 nM and 11.09 nM and 12.27 nM and 10.43 nM and 10.75 nM and 8.20 nM and 7.99 nM and 10.52 nM and 14.43 nM and 17.77 nM | Dexamethasone conc, avg ([1]; plasma, male, VD3 deficient, day 3.5, n=8): 31.70 nM | Dexamethasone conc, individual mouse ([1]; plasma, male, VD3 sufficient (MRE), 3.5 Days): 10.97 nM and 6.41 nM and 7.05 nM and BLQ (BLQ = BELOW the LLOQ, lower lmit of quantification = 5 nM dexamethasone) and 3.62 nM and 34.11 nM | Dexamethasone conc, individual mouse ([1]; plasma, male, VD3 sufficient (MRE), 10.5 Days): 56.24 nM and 2.95 nM and 2.63 nM and 10.01 nM and 12.14 nM and BLQ (BLQ = BELOW the LLOQ, lower lmit of quantification = 5 nM dexamethasone) and 34.37 nM and 7.89 nM | Dexamethasone conc, individual mouse ([1]; plasma, male, VD3 sufficient (MRE), 17.5 Days): 9.70 nM and 6.19 nM and 17.34 nM and 10.75 nM and 11.40 nM and 11.09 nM and 17.17 nM and 6.62 nM and 29.23 nM | estimated Cgut (gut concentration) ([2]; single oral gavage): 200 µM | higher CL/F in males vs females ([2]; single oral gavage 2 mg/kg DEX phosphate, regardless of VD3 status): ~ 25% | lower AUC values in males vs females ([2]; single oral gavage 2 mg/kg dexamethasone phosphate, 14 weeks): approximately 25% | apparent oral clearance (CL/F), male vs female ([2]; single oral gavage, regardless of VD3 status): 1.26 fold | DV (Dex oral gavage PK raw data) ([2]; time 0.25, SEX:F, VD3_DEF:0): 907.64 and 982.88 | DV (Dex oral gavage PK raw data) ([2]; time 0.25, SEX:M, VD3_DEF:0): 359.52 and 381.14 and 918.28 and 295.91 | DV (Dex oral gavage PK raw data) ([2]; time 0.5, SEX:F, VD3_DEF:0): 300.45 and 875.91 and 827.78 and 1011.08 and 796.28 | DV (Dex oral gavage PK raw data) ([2]; time 0.5, SEX:M, VD3_DEF:0): 854.61 and 443.3 and 391.17 and 812.36 and 581.49 | DV (Dex oral gavage PK raw data) ([2]; time 0.75, SEX:F, VD3_DEF:0): 593 and 696.57 and 716.27 | DV (Dex oral gavage PK raw data) ([2]; time 0.75, SEX:M, VD3_DEF:0): 319 and 407.15 and 712.45 and 358.52 | DV (Dex oral gavage PK raw data) ([2]; time 1, SEX:F, VD3_DEF:0): 323.98 and 614.7 and 559.39 and 858.7 and 572.77 | DV (Dex oral gavage PK raw data) ([2]; time 1, SEX:M, VD3_DEF:0): 871.76 and 446.29 and 284.95 and 564.36 and 379.97 | DV (Dex oral gavage PK raw data) ([2]; time 1.5, SEX:F, VD3_DEF:0): 400.31 and 458.1 and 520.89 | DV (Dex oral gavage PK raw data) ([2]; time 1.5, SEX:M, VD3_DEF:0): 262.55 and 317.69 and 754.41 and 324.39 | DV (Dex oral gavage PK raw data) ([2]; time 2, SEX:F, VD3_DEF:0): 620.12 and 492.72 and 552.22 and 715.36 | DV (Dex oral gavage PK raw data) ([2]; time 2, SEX:M, VD3_DEF:0): 450.54 and 344.89 and 388.67 and 378.66 and 784.19 | DV (Dex oral gavage PK raw data) ([2]; time 2, SEX:M, VD3_DEF:1): 453.95 and 476.24 | DV (Dex oral gavage PK raw data) ([2]; time 4, SEX:F, VD3_DEF:0): 375.42 and 312.44 and 291.92 and 312.42 and 297.86 | DV (Dex oral gavage PK raw data) ([2]; time 4, SEX:M, VD3_DEF:0): 215.15 and 191.38 and 191.07 and 239.97 and 623.74 | DV (Dex oral gavage PK raw data) ([2]; time 4, SEX:M, VD3_DEF:1): 214.6 and 240.73 and 185.34 | DV (Dex oral gavage PK raw data) ([2]; time 8, SEX:F, VD3_DEF:0): 121.36 and 89.26 and 221.1 and 152.45 and 67.95 | DV (Dex oral gavage PK raw data) ([2]; time 8, SEX:M, VD3_DEF:0): 74.87 and 61.36 and 52.11 and 112.04 and 269.34 | DV (Dex oral gavage PK raw data) ([2]; time 8, SEX:M, VD3_DEF:1): 66.26 and 72.8 | DV (Dex oral gavage PK raw data) ([2]; time 16, SEX:F, VD3_DEF:0): 29.97 and 65.92 and 14.35 and 7.95 and 53.43 | DV (Dex oral gavage PK raw data) ([2]; time 16, SEX:M, VD3_DEF:0): 18.43 and 25.62 and 92.79 and 13.68 and 19.85 | EC50 (PXR; printed in Fig 9, ref Kliewer SA, et al. Cell. 1998): 30 µM | Kd (PXR; relatively weak PXR agonist, no reference given, read-out: Kd as PXR agonist): ~30 µM

Cc1nc(Nc2ncc(C(=O)Nc3c(C)cccc3Cl)s2)cc(N2CCN(CCO)CC2)n1 [dasatinib]
K(inact), CYP3A4 mechanism-based inactivation (CYP3A4): 0.034 min (-1) | KI (inactivation) (CYP3A4; read-out: K(I), CYP3A4 mechanism-based inactivation): 6.3 µM | Tmax [3]: 36 min
